Among the test systems are RXF 393; OVCAR-4; HOP-62; CAKI-1; EKVX; UACC-62; OVCAR-8; SF-295; NCI/ADR-RES; LOX IMVI; K562; KM-20L2; MCF7; HCT-15; SW-620; COLO 205; NCI-H23; TK-10; M14; MDA-MB-231.
What all share (assay): DTP human tumour cell line panel, 48 h

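Dose response: 5 concentrations. Exposure: 48 h. Format: 96-well plates. Endpoint: linear interpolation; highest concentration if not reached. GI50 marks 50% less growth.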 Calls of active or inactive are those of the source. Rule as the data show it: active = GI50 up to about 1.1 µM and inactive = higher.

The GI50 is the concentration at which growth is held to half of that of the control. Regarding `CC(=O)c1ccc2c(c1)c1c(C)c3c[n+](C)ccc3c(C)c1n2C`, the GI50 is 11.4 µM (inactive) in the test with RXF 393; 4.85 µM (inactive) with OVCAR-4; 7.36 µM (inactive) in the test on HOP-62; 6.92 µM (inactive) with CAKI-1; 33.3 µM (inactive) in the test on EKVX; 1.87 µM (inactive) with UACC-62. For the same compound, the GI50 in the test on OVCAR-8 is 1.45 µM (inactive); with SF-295, 0.885 µM (active); with NCI/ADR-RES, 8.55 µM (inactive); with LOX IMVI it was 4.63 µM (inactive); in the test with K562, 14.8 µM (inactive); with KM-20L2, 17.1 µM (inactive). The GI50 was 3.1 µM (inactive) in the test with MCF7, 17.6 µM in the test on HCT-15, 1.03 µM (active) in the test on SW-620 and 9.57 µM (inactive) in the test on COLO 205.

Turning to `O=C1NN=C(c2ccc([N+](=O)[O-])cc2)C1n1nc(-c2ccccc2)c2ccccc2c1=O` (stereo not given), the GI50 in the test with RXF 393, in the test on OVCAR-4, in the test with HOP-62, in the test on CAKI-1, in the test with EKVX and with UACC-62 was > 100 µM (inactive) in each case. Moreover, the GI50 with OVCAR-8 was > 88.1 µM (inactive); in the test with NCI-H23 it was > 100 µM (inactive); in the test with SF-295 it was > 100 µM (inactive); with LOX IMVI it was > 76.9 µM (inactive); in the test on K562, > 54.5 µM (inactive); in the test with KM-20L2, > 100 µM (inactive). For the same compound, the GI50 in the test on HCT-15 is more than 45.2 µM; in the test on TK-10, > 100 µM (inactive); with M14, > 100 µM (inactive); in the test with SW-620, > 34.2 µM (inactive); with COLO 205, > 60.8 µM (inactive).

On to `C[N+](C)(C)CC1CCc2ccccc2C1=O` (stereo not given), for which the GI50 in the test on RXF 393 is 14.2 µM (inactive); in the test on OVCAR-4, 4.75 µM (inactive); in the test with HOP-62 it was 26.4 µM (inactive); in the test on CAKI-1, 4.97 µM (inactive); with EKVX, 7.76 µM (inactive); in the test with UACC-62 it was 5.42 µM (inactive). Further, the GI50 in the test on MDA-MB-231 was 7.13 µM (inactive); in the test on OVCAR-8 it was 17.1 µM (inactive); in the test on NCI-H23, 13.3 µM (inactive); with SF-295, 34.1 µM (inactive); with NCI/ADR-RES, 10.6 µM (inactive); in the test on LOX IMVI it was 18.7 µM (inactive). The GI50 was 1.79 µM (inactive) in the test with K562; 19.6 µM (inactive) in the test on KM-20L2; 1.64 µM (inactive) in the test on MCF7; 3.04 µM in the test with HCT-15; 16.1 µM (inactive) with TK-10; 5.87 µM (inactive) in the test with M14. In addition, the GI50 was 1.68 µM (inactive) with SW-620 and 7.55 µM (inactive) in the test on COLO 205.

Take `NC(=O)c1csc(CCCCCCc2nc(C(N)=O)cs2)n1`: the GI50 is > 100 µM (inactive) in the test on RXF 393; > 57.7 µM (inactive) with OVCAR-4; > 100 µM (inactive) with HOP-62; > 100 µM (inactive) in the test on CAKI-1; > 100 µM (inactive) with EKVX; > 100 µM (inactive) with UACC-62. For the same compound, the GI50 is > 100 µM (inactive) with OVCAR-8; > 100 µM (inactive) in the test with NCI-H23; > 100 µM (inactive) with SF-295; > 61.7 µM (inactive) in the test with LOX IMVI; > 39.1 µM (inactive) in the test on K562; > 100 µM (inactive) in the test with KM-20L2. Also, the GI50 in the test with HCT-15 is more than 100 µM; in the test with TK-10, > 100 µM (inactive); in the test with M14, > 100 µM (inactive); in the test on SW-620, > 40.3 µM (inactive); with COLO 205, > 59.3 µM (inactive).

Take `CNC(C)Cc1ccc(O)cc1` (stereo not given): the GI50 with RXF 393, with OVCAR-4, in the test with HOP-62, with CAKI-1, with EKVX and with UACC-62 was > 100 µM (inactive) throughout. Moreover, the GI50 in the test on OVCAR-8, in the test on NCI-H23, in the test with SF-295, in the test with LOX IMVI, in the test on K562 and with KM-20L2 was > 100 µM (inactive) each time. For the same compound, the GI50 was more than 100 µM with HCT-15; > 100 µM (inactive) in the test on TK-10; > 100 µM (inactive) in the test with M14; > 100 µM (inactive) in the test on SW-620; > 100 µM (inactive) in the test on COLO 205.

As for `CN(C)/C(=N\C#N)N(Cc1ccccc1)Cc1ccccc1`, the GI50 in the test on RXF 393 is 42.6 µM (inactive); in the test on OVCAR-4 it was > 100 µM (inactive); in the test on HOP-62 it was > 100 µM (inactive); in the test with CAKI-1, > 100 µM (inactive); in the test on EKVX, > 100 µM (inactive); with UACC-62, 62.4 µM (inactive). In addition, the GI50 with OVCAR-8 is 87.3 µM (inactive); in the test on NCI-H23 it was > 100 µM (inactive); in the test with SF-295, 68.4 µM (inactive); with LOX IMVI, 36.6 µM (inactive); in the test with K562, 17.9 µM (inactive); in the test with KM-20L2, > 100 µM (inactive). In addition, the GI50 is 16.6 µM with HCT-15; > 100 µM (inactive) in the test on TK-10; > 100 µM (inactive) in the test on M14; 17.9 µM (inactive) in the test on SW-620; 74 µM (inactive) in the test with COLO 205.

For `Nc1ccc(/N=N/c2ccc(/C=C/c3ccc(/N=N/c4ccc(N)c5ccc(S(=O)(=O)O)cc45)cc3S(=O)(=O)O)c(S(=O)(=O)O)c2)c2cc(S(=O)(=O)O)ccc12`, the GI50 with RXF 393, with OVCAR-4, in the test on HOP-62, in the test on EKVX, in the test with UACC-62 and in the test with OVCAR-8 was > 100 µM (inactive) throughout. Moreover, the GI50 in the test on NCI-H23, with SF-295, in the test on NCI/ADR-RES, in the test with LOX IMVI, in the test on K562 and in the test with KM-20L2 was > 100 µM (inactive) in each case. For the same compound, the GI50 with MCF7 was > 100 µM (inactive); in the test with HCT-15, more than 100 µM; with SW-620, > 100 µM (inactive); with COLO 205, > 100 µM (inactive).

With `CCCCCCCCCCCCCCCCCCOP(=O)([O-])OC1CC[N+](C)(C)CC1` [PERIFOSINE], the GI50 in the test with RXF 393 is 1.79 µM (inactive); with OVCAR-4, > 9.95 µM (inactive); in the test on HOP-62 it was 7.53 µM (inactive); in the test with CAKI-1, 3.6 µM (inactive); with EKVX it was 11.3 µM (inactive); in the test on UACC-62, 8.39 µM (inactive). Besides, the GI50 in the test on MDA-MB-231 was 6.89 µM (inactive); in the test with OVCAR-8 it was 14.7 µM (inactive); in the test with NCI-H23, 16.1 µM (inactive); in the test on SF-295, 4.98 µM (inactive); in the test on NCI/ADR-RES, 14 µM (inactive); in the test with LOX IMVI, 7.43 µM (inactive). Also, the GI50 is 16.4 µM (inactive) in the test on K562; 2.24 µM (inactive) in the test on KM-20L2; 15.7 µM (inactive) in the test on MCF7; 2.48 µM in the test with HCT-15; 2.04 µM (inactive) with TK-10; 2.97 µM (inactive) in the test with M14. Moreover, the GI50 was 8.05 µM (inactive) with SW-620 and 3.24 µM (inactive) with COLO 205.

(Values after ChEMBL document CHEMBL1201862, “PubChem BioAssay data set” (2004).)
